Results taken from ChEMBL document CHEMBL1201862, “PubChem BioAssay data set” (2004).
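Assay format: 96-well plates, 48-hour exposure. GI50 is the concentration that inhibits growth by half.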 Activity calls are given as the source filed them. No stated cut-off is given here; in the data, active = GI50 up to about 1.1 µM and inactive = higher.

Legend:
Assay in all cases: growth of human tumour cells (NCI), 48 h
NCI-H460 = tested on: NCI-H460
MOLT-4 = tested on: MOLT-4
NCI-H23 = tested on: NCI-H23
U-251 = tested on: U-251
COLO 205 = tested on: COLO 205
NCI-H522 = tested on: NCI-H522
HT-29 = tested on: HT-29
NCI/ADR-RES = tested on: NCI/ADR-RES
BT-549 = tested on: BT-549
786-0 = tested on: 786-0
SF-268 = tested on: SF-268
EKVX = tested on: EKVX
HL-60 = tested on: HL-60
A549 = tested on: A549
SN12C = tested on: SN12C
M14 = tested on: M14
SK-MEL-5 = tested on: SK-MEL-5
T47D = tested on: T47D
MCF7 = tested on: MCF7

Measured: GI50

CC1(C)[C@@H]2C[C@H]1c1cnc(-c3ccccn3)cc1C2CCCCC[C@@H]1c2cc(-c3ccccn3)ncc2[C@@H]2C[C@H]1C2(C)C (stereo not given in full)
inactive: NCI-H460 1.99 µM | NCI-H23 1.82 µM | NCI-H522 1.71 µM | NCI/ADR-RES 25.6 µM | BT-549 14.1 µM | EKVX 2.56 µM | SN12C 1.53 µM | M14 1.61 µM | SK-MEL-5 4.18 µM | T47D 1.69 µM
active: MOLT-4 0.357 µM | U-251 0.897 µM | COLO 205 0.578 µM | HT-29 0.759 µM | 786-0 0.493 µM | SF-268 0.687 µM | HL-60 0.426 µM | A549 0.869 µM | MCF7 0.809 µM

c1cc(CSSCc2ccncc2)ccn1
inactive: NCI-H460 23.7 µM | MOLT-4 3.21 µM | NCI-H23 22 µM | U-251 23.3 µM | COLO 205 8.11 µM | NCI-H522 12.9 µM | HT-29 24.2 µM | NCI/ADR-RES 30.5 µM | BT-549 51.6 µM | 786-0 10.4 µM | SF-268 28.4 µM | EKVX 54.8 µM | HL-60 13.7 µM | A549 27.3 µM | SN12C 25.2 µM | M14 11.3 µM | SK-MEL-5 17.7 µM | T47D > 67.9 µM | MCF7 32.8 µM

O=C1CS(=O)(=O)C(c2cccc(Oc3ccccc3)c2)N1c1cc(Cl)ccc1Cl (stereo not given)
inactive: NCI-H460 21.9 µM | MOLT-4 39.3 µM | NCI-H23 29.1 µM | U-251 15.7 µM | COLO 205 30.2 µM | NCI-H522 23.7 µM | HT-29 20 µM | NCI/ADR-RES 25.7 µM | BT-549 19 µM | 786-0 19.2 µM | SF-268 23.1 µM | EKVX 35.2 µM | HL-60 34.2 µM | A549 38.2 µM | SN12C 20.7 µM | M14 20.4 µM | SK-MEL-5 15.8 µM | T47D 15.6 µM | MCF7 16.1 µM

CCOC(=O)CC[C@@H](NC(=O)c1ccc(NCc2ccc3nc(OC)c(OC)nc3c2)cc1)C(=O)OCC
inactive: NCI-H460 20.6 µM | MOLT-4 16.6 µM | NCI-H23 > 83.2 µM | U-251 > 100 µM | COLO 205 28.6 µM | NCI-H522 19.9 µM | HT-29 > 72.8 µM | NCI/ADR-RES > 100 µM | BT-549 > 67.3 µM | 786-0 59.4 µM | SF-268 33.4 µM | EKVX > 78.3 µM | HL-60 14.8 µM | A549 > 100 µM | SN12C 52 µM | M14 16.3 µM | SK-MEL-5 13.6 µM | T47D 19.1 µM | MCF7 25.5 µM

O=C1OC(CN2CCN(c3ccccc3)CC2)CN1C(=S)Nc1ccccc1 (stereo not given)
inactive: NCI-H460 23.8 µM | MOLT-4 > 100 µM | NCI-H23 > 100 µM | U-251 > 100 µM | COLO 205 > 100 µM | NCI-H522 > 100 µM | HT-29 35.1 µM | NCI/ADR-RES > 100 µM | BT-549 > 100 µM | 786-0 > 100 µM | SF-268 > 100 µM | EKVX > 100 µM | HL-60 > 100 µM | A549 > 100 µM | SN12C > 100 µM | M14 > 100 µM | SK-MEL-5 > 100 µM | T47D > 100 µM | MCF7 > 100 µM

O=C(Nc1nnc(-c2ccc(Cl)cc2)o1)C(SC(=S)N1CCCCC1)c1ccccc1 (stereo not given)
inactive: NCI-H460 7.6 µM | MOLT-4 1.31 µM | NCI-H23 21.9 µM | U-251 13 µM | COLO 205 24.4 µM | NCI-H522 17.6 µM | HT-29 22.2 µM | NCI/ADR-RES 4.84 µM | BT-549 17.6 µM | 786-0 14.8 µM | SF-268 6.5 µM | EKVX 20.7 µM | HL-60 8.59 µM | A549 16.4 µM | SN12C 12.5 µM | M14 13.2 µM | SK-MEL-5 15.7 µM | T47D 27.2 µM | MCF7 18.7 µM

CNC1C(=O)C(C)C(O)(C(CC(C)C(O)/C=C/C=C/CNC(=O)C(C)(C)C(O)\C(C)=C/C=C\C=C\Cc2cnc(C)o2)OC)C12C(=O)OC2C.CNC1C(=O)C(C)C(O)(C(CC(C)C(O)/C=C/C=C/CNC(=O)C(C)(C)C(O)\C(C)=C/C=C\C=C\Cc2cnc(C)o2)OC)C12C(=O)OC2COC (stereo not given)
inactive: NCI-H460 15.2 µM | MOLT-4 8.85 µM | U-251 1.15 µM | HT-29 3.27 µM | NCI/ADR-RES 15.9 µM | BT-549 25.1 µM | 786-0 18.5 µM | SF-268 5.68 µM | SN12C 10.9 µM | M14 7.46 µM
active: NCI-H23 0.218 µM | COLO 205 0.778 µM | NCI-H522 0.565 µM | EKVX 0.292 µM | HL-60 0.635 µM | A549 0.78 µM | SK-MEL-5 0.191 µM | T47D 0.202 µM | MCF7 0.354 µM

CC1(C)O[C@@H]2COC(=O)[C@@H]2O1
inactive: NCI-H460 > 100 µM | MOLT-4 > 100 µM | NCI-H23 > 100 µM | U-251 > 100 µM | COLO 205 > 100 µM | NCI-H522 > 100 µM | HT-29 > 100 µM | NCI/ADR-RES > 100 µM | BT-549 > 100 µM | 786-0 > 100 µM | SF-268 > 100 µM | EKVX > 100 µM | HL-60 > 100 µM | A549 > 100 µM | SN12C > 100 µM | M14 > 100 µM | SK-MEL-5 > 100 µM | T47D > 100 µM | MCF7 > 100 µM

COc1ccc(-c2oc3cc(OC)c(OC)c(OC)c3c(=O)c2OC)cc1OC [HEXAMETHOXYFLAVONE]
inactive: NCI-H460 > 100 µM | MOLT-4 > 100 µM | NCI-H23 > 100 µM | U-251 > 100 µM | COLO 205 > 100 µM | NCI-H522 > 100 µM | HT-29 > 100 µM | NCI/ADR-RES > 100 µM | BT-549 > 100 µM | 786-0 > 100 µM | SF-268 > 100 µM | EKVX > 100 µM | HL-60 20.8 µM | A549 > 100 µM | SN12C > 100 µM | M14 > 100 µM | SK-MEL-5 53.8 µM | T47D 79.6 µM | MCF7 > 100 µM

C=C1CCC(CC[C@@H]2CC[C@]3(OC2)O[C@@]2(O)CC[C@]3(C)OC2(C)C)C(C)(C)[C@H]1C/C=C1/C(=O)OC[C@@H]1O (stereo not given in full)
active: NCI-H23 0.445 µM | NCI/ADR-RES 0.906 µM | HL-60 0.685 µM | SK-MEL-5 0.0986 µM | T47D 0.413 µM | MCF7 1.11 µM
inactive: NCI-H460 3.04 µM | MOLT-4 1.59 µM | U-251 2 µM | COLO 205 5.43 µM | NCI-H522 1.29 µM | HT-29 1.63 µM | BT-549 1.9 µM | 786-0 2.96 µM | SF-268 3.01 µM | EKVX 2.96 µM | A549 3.55 µM | SN12C 2.36 µM | M14 2.48 µM

CN(CCCNC(=O)c1cn(C)c2c1ccc1cc(Cl)c(Cl)cc12)CCCNC(=O)c1cn(C)c2c1ccc1cc(Cl)c(Cl)cc12
inactive: NCI-H460 3.97 µM | MOLT-4 10.4 µM | NCI-H23 14.6 µM | U-251 3.03 µM | COLO 205 3.18 µM | NCI-H522 14.6 µM | HT-29 14.8 µM | NCI/ADR-RES 15.2 µM | BT-549 15.6 µM | 786-0 6.27 µM | SF-268 13.7 µM | EKVX 15.4 µM | HL-60 2.47 µM | A549 11 µM | SN12C 13.6 µM | M14 10.7 µM | SK-MEL-5 14.7 µM | T47D 13.7 µM | MCF7 5.16 µM

COCn1c2ccc(OC(C)=O)cc2c2c(=O)oc(C)nc21
active: HT-29 0.497 µM
inactive: NCI-H460 > 100 µM | MOLT-4 > 100 µM | NCI-H23 > 100 µM | U-251 > 100 µM | COLO 205 > 100 µM | NCI-H522 > 100 µM | NCI/ADR-RES > 100 µM | BT-549 > 100 µM | 786-0 > 100 µM | SF-268 > 100 µM | EKVX > 100 µM | HL-60 > 100 µM | A549 > 100 µM | SN12C > 100 µM | M14 > 100 µM | SK-MEL-5 > 100 µM | T47D > 100 µM | MCF7 > 100 µM

CC(=O)c1cccc2c1CC1(C2)Cc2ccc3c(c2C1=O)CCC3 (stereo not given)
inactive: NCI-H460 33.3 µM | MOLT-4 25.3 µM | NCI-H23 67.8 µM | U-251 47.1 µM | COLO 205 26.5 µM | NCI-H522 17 µM | HT-29 23.1 µM | NCI/ADR-RES 12.7 µM | BT-549 82.2 µM | 786-0 41.2 µM | SF-268 40.7 µM | EKVX 17.9 µM | HL-60 3.64 µM | A549 23.3 µM | SN12C 35.8 µM | M14 46.7 µM | SK-MEL-5 14 µM | T47D 29.1 µM | MCF7 9.57 µM

CC(=O)Oc1ccc2c(c1OC(C)=O)CCC1C2=CC[C@]2(C)C(=O)CCC12 (stereo not given in full)
inactive: NCI-H460 16.4 µM | MOLT-4 3.3 µM | NCI-H23 21.4 µM | COLO 205 14.5 µM | NCI-H522 1.82 µM | HT-29 17.6 µM | NCI/ADR-RES 27.6 µM | BT-549 15.6 µM | 786-0 2.47 µM | SF-268 12.1 µM | EKVX 10.5 µM | HL-60 6.89 µM | A549 16 µM | SN12C 14.1 µM | M14 12.5 µM | T47D 9.46 µM | MCF7 14.2 µM
active: SK-MEL-5 < 0.01 µM
